Measurements: publication PMC3878625, “Inhibitory effects of grape skin extract and resveratrol on fatty acid synthase” (BMC Complementary and Alternative Medicine, 2013)

Molecular target: T1, Fatty acid synthase (FAS) (Gallus gallus, UniProt P12276)
T1 construct: gene FASN; FAS purified from chicken liver
Assay: spectrophotometric NADPH oxidation assay ([…] nm) of purified FAS, overall and KR reactions; time-dependent inhibition and Lineweaver-Burk kinetics
Type: biochemical

T1 sequence (P12276 2-2512): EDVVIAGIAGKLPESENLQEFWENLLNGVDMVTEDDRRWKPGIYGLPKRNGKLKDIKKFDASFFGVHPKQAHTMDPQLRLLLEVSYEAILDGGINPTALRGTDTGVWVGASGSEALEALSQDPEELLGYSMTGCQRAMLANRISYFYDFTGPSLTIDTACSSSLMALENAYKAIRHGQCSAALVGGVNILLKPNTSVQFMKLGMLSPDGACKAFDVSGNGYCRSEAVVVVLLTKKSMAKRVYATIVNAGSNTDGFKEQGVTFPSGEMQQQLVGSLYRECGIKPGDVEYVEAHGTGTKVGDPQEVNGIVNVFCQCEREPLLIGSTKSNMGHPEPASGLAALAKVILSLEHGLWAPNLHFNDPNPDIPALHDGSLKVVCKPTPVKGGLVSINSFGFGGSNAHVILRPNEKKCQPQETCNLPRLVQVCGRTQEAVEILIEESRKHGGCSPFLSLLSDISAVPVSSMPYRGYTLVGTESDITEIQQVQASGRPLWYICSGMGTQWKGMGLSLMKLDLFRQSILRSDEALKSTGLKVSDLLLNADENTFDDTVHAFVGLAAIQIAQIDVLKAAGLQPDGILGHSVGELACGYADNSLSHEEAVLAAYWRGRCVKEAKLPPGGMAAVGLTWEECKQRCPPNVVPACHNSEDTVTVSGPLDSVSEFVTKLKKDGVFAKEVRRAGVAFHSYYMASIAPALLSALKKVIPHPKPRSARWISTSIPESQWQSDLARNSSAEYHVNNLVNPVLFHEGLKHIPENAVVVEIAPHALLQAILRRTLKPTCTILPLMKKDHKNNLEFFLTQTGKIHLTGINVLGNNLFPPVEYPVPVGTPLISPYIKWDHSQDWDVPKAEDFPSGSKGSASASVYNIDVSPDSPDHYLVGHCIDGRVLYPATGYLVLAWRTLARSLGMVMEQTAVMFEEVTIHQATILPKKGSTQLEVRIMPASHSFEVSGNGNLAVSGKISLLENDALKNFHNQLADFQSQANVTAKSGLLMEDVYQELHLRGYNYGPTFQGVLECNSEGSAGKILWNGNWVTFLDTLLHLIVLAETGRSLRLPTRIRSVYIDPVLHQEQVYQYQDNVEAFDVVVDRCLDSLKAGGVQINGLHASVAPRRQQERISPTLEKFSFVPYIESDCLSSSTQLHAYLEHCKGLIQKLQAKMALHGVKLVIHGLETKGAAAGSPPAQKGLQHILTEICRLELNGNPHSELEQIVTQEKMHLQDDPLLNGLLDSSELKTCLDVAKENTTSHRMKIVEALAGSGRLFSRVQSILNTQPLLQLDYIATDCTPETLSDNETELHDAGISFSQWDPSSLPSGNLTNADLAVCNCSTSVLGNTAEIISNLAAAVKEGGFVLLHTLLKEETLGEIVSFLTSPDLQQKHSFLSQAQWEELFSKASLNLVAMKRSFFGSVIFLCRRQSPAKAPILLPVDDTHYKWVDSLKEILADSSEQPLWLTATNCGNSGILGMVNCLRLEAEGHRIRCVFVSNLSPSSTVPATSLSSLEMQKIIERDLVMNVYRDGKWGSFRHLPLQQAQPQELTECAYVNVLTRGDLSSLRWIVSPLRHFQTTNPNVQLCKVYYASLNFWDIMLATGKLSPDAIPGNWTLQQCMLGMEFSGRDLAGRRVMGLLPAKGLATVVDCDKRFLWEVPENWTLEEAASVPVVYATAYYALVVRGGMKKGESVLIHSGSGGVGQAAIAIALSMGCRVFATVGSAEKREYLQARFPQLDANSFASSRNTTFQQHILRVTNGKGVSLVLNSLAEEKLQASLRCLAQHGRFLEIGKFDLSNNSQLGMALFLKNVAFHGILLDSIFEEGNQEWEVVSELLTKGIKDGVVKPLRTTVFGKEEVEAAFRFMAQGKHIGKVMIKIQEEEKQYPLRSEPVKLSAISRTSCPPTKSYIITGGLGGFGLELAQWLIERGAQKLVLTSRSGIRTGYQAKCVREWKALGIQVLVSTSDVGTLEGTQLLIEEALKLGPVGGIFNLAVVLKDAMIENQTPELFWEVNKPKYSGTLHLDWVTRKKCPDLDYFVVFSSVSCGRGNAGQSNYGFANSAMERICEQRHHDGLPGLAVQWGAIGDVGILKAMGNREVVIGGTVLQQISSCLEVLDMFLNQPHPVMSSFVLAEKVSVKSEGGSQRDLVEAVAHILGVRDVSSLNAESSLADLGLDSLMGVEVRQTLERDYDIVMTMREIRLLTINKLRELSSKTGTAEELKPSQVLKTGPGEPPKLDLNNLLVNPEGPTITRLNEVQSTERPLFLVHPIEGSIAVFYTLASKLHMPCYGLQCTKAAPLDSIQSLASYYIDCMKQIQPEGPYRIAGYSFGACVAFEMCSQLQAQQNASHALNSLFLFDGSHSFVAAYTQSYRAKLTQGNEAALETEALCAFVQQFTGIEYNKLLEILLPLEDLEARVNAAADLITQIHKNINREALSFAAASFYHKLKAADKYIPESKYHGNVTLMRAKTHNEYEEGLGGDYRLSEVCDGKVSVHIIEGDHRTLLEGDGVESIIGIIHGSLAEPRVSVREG

With `Oc1ccc(/C=C/c2cc(O)cc(O)c2)cc1` [resveratrol, 3,5,4′-trihydroxystilbene] the IC50 was 48.6 µM.
